This note sets out measurements from article PMC2267855, “Site-directed mutagenesis of Arginine282 suggests how protons and peptides are co-transported by rabbit PepT1” (The International Journal of Biochemistry & Cell Biology, 2008).

Residue numbers refer to the chain shown, from its start.

In one experiment the target is T1, R282E-PepT1 (Oryctolagus cuniculus, UniProt P36836, R282E).
T1 construct: expressed in transfected cells; host or cells: Xenopus laevis oocytes injected with cRNA
T1 sequence (P36836 1-707 R282E): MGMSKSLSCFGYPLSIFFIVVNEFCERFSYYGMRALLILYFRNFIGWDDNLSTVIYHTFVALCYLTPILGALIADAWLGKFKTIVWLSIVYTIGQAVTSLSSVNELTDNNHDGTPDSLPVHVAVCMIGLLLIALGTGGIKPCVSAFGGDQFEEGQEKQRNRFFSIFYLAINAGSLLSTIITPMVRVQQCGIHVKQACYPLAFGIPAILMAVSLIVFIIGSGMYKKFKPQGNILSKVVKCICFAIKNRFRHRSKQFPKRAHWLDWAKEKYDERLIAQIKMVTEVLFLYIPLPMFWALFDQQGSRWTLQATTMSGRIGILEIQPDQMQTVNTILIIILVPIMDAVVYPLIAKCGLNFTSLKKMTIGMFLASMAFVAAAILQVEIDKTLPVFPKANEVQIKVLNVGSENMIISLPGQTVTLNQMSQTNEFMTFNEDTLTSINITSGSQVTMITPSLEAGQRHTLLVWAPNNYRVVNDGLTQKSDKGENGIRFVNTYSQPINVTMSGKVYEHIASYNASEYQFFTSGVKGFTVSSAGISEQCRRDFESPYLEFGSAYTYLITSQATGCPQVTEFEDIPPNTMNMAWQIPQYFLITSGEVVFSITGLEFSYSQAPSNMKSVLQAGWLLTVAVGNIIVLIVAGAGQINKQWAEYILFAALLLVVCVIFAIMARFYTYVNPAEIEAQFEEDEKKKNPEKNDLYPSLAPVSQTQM
Kind of experiment: Apparent charge:peptide stoichiometry (two-electrode voltage clamp current / radiolabelled uptake), R282E-PepT1. The note with it: R282E-PepT1, pHout 5.5, resting membrane potential. Format: cell-based, rabbit. How it is done:
(§1) Measurements of membrane potential were made by impaling oocytes with a single glass microelectrode (Intra 767 amplifier, WPI, Stevenage, Hertfordshire, UK) perfused in uptake medium (as above) with or without 0.4 μM D-Phe-L-Gln (synthesised in house), 0.6 mM Gly-L-Gln (Sigma, Poole, UK) or 10 mM 4-aminobenzoic acid (4-AMBA, Sigma). Two-electrode voltage clamp (TEVC) was performed by placing oocytes in a 0.1 ml recording chamber and perfusing with uptake solution (pH 5.5 or 7.4) at a rate of 15 ml/min. Oocytes were impaled by two agarose-cushioned microelectrodes filled with 3 M KCl (0.5–2.0 MΩ) and voltage-clamped at −60 mV using a Geneclamp 500B amplifier and PCLAMP 8.1 software (Axon Instruments, CA, USA). The holding potential was stepped from −60 mV over the range of −150 to +50 mV in 10 mV steps, each pulse lasting 100 ms, and returning to −60 mV in between test voltage pulses. Typically traces were filtered at 1 kHz during recording and digitized at 0.5–5 kHz using the DigiData 1200 interface (Axon Instruments, CA, USA). All experiments were carried out at room temperature.
(§2) In order to calculate the apparent charge:substrate stoichiometry, the peptide induced current that was measured by two-electrode voltage clamp at the oocyte resting membrane potential was divided by the radiolabelled dipeptide uptake in oocytes from the same preparation. […]

Another experiment deals with T2, R282A-PepT1 (Oryctolagus cuniculus, UniProt P36836, R282A).
T2 construct: expressed in transfected cells; host or cells: Xenopus laevis oocytes injected with cRNA
T2 sequence (P36836 1-707 R282A): T1 sequence (P36836 1-707 R282E) with E282A
Kind of experiment: Apparent charge:peptide stoichiometry (two-electrode voltage clamp current / radiolabelled uptake), R282A-PepT1. It is filed as cell-based, rabbit. The note with it: R282A-PepT1, pHout 5.5, resting membrane potential. How it is done:
as §1, §2

On to `NC(=O)CC[C@H](NC(=O)[C@H](N)Cc1ccccc1)C(=O)O` [D-Phe-L-Gln], for which the “apparent stoichiometry (charge:peptide), normalised to wild-type 1:1” value on R282E-PepT1 is 4; on R282A-PepT1, 5.
